These results are taken from patent publication US20050234113A1, “Antioxidant and radical scavenging activity of synthetic analogs of desferrithiocin” (University of Florida Research Foundation, Inc., priority 2002, published 2005).

Assay [1] concerns iron. The experiment in a line: Iron clearance in the non iron-overloaded, bile duct-cannulated rodent model. It is filed as in vivo, Sprague-Dawley rats. As for the experimental part:
Briefly, male Sprague-Dawley rats averaging 450 g were housed in Nalgene plastic metabolic cages during the experimental period and given free access to water. The animals were anesthetized using sodium pentobarbital (55 mg/kg) administered intraperitoneally. The bile duct was cannulated using 22-gauge polyethylene tubing. The cannula was inserted into the duct about 1 cm from the duodenum and tied snugly in place. After threading through the shoulder, the cannula was passed from the rat to the swivel inside a metal torque-transmitting tether, which was attached to a rodent jacket around the animal's chest. The cannula was directed from the rat to a Gilson microfraction collector (Middleton, Wis.) by a fluid swivel mounted above the metabolic cage. Bile samples were collected at 3 hour intervals for 24 hours. The urine sample was taken at 24 hours and handling was as previously described. (Bergeron, R. J., et al., J. Med. Chem. 34:2072-2078 (1991).
(§1) The iron chelators were solubilized in 40% Cremophor RH-40/water (v/v) and given orally and subcutaneously to the rats at the doses shown in Table 4. In the primates, DFO was dissolved in sterile H2O at a concentration of 50 or 100 mg/mL and given orally or subcutaneously at a volume of 1 ml/kg. The desferrithiocin analogues were solubilized in 40% Cremophor RH-40/water (v/v) and given orally to the monkeys at the doses shown in Table 4. However, the desferrithiocin analogues were administered subcutaneously as either a suspension in distilled H2O or as their sodium salts in solution as indicated in Table 4.
(§2) Iron clearance studies were carried out both in the non iron-overloaded, bile duct-cannulated rodent model and in the iron-overloaded Cebus apella monkey, and the results are reported as iron clearing efficiency (Table 4). This number is generated by dividing the net iron clearance [total iron excretion (bile or stool plus urine) minus background] by the theoretical iron clearance and multiplying by 100. The theoretical iron clearance is based on a 2:1 metal complex stoichiometry for 4′-(HO)-DADMDFT, a 1:1 stoichiometry for DFO, and a 1:1 stoichiometry for BDU, as shown in the Job's plot (FIG. 5). Data are presented as the mean±the standard error of the mean. The drugs were administered both orally (po) and subcutaneously (sc) to the rodents and primates; the positive control was DFO.

For assay [2], the system named is iron. Description: Iron clearance in the iron-overloaded Cebus apella monkey. The format is in vivo. The settings on record: 300 μmol/kg sc, as sodium salt. The protocol:
The monkeys were iron overloaded with intravenous iron dextran to provide about 500 mg iron per kg body weight. The serum transferrin iron saturation rose to between 70 and 80%. At least twenty half-lives, sixty days, elapsed before any of the animals were used in experiments evaluating iron-chelating agents.
Fecal and urine samples were collected at 24 hour intervals and processed. Briefly, the collections began 4 days prior to the administration of the test drug and continued for an additional 5 days after the drug was given. Iron concentrations were determined by flame atomic absorption spectroscopy.
as §1, §2

Assay [3] can be described thus: Quenching of the ABTS radical cation. The settings on record: Table 5; 6-min reaction, initial OD 1.000.
For assay [4], the system named is iron. The settings on record: cited from earlier work.
The subject of assay [5] is iron. The settings on record: cited from earlier work. The source holds these as a separate data set.
[6] abbreviates: 150 μmol/kg sc, suspension in water, n = 3.
Where [7] appears, read: 300 μmol/kg po, in 40% Cremophor.
Where [8] appears, read: 150 μmol/kg po (footnote d: dose administered, 300 μmol/kg).

Several values for one entry are separate records, joined by “and”; a condition that tells them apart may be missing. Equal values may be shown once. Read-outs that look alike come from different tables or passages of the source. Marks after values point to notes of the source that are not given here.

Turning to `O=C(O)[C@H]1CSC(c2ccc(O)cc2O)=N1` [4′-(HO)-DADMDFT, 4′-hydroxydesazadesmethyldesferrithiocin], in the assay with iron [1] (300 μmol/kg po), the “% bile (of iron excreted), rodents” value was 100%; the “% urine (of iron excreted), rodents” value is listed as 0%; the “efficiency in rodents (%)” value turned out to be 2.9±2.8%. Moreover, in the assay on iron [1] (300 μmol/kg sc), the “% bile (of iron excreted), rodents” value is on record as 90%; the “% urine (of iron excreted), rodents” value is on record as 10%; the “efficiency in rodents (%)” value was found to be 2.1±0.9%. For the same compound, in the assay with iron [2], the “% stool (of iron excreted), monkeys” value worked out at 75%; the “% urine (of iron excreted), monkeys” value is 25%; the “efficiency in monkeys (%)” value was 5.3±1.7% and 5.3 ± 1.7^g %. Further, the “Slope × 10^3 OD units/μM (ABTS radical cation quenching)” value in assay [3] is recorded as −102 × 10^3 OD units/μM. Besides, in the assay on iron [4] (setting [6]), the “% stool (of iron excreted), monkeys” value is recorded as 92%; the “% urine (of iron excreted), monkeys” value is reported as 8%; the “efficiency in monkeys (%)” value was 5.6±0.9% and 5.6 ± 0.9^f %. Further, in the assay on iron [4] (setting [7]), the “% stool (of iron excreted), monkeys” value is on record as 90%; the “% urine (of iron excreted), monkeys” value was 10%; the “efficiency in monkeys (%)” value was 5.3±1.7% and 5.3 ± 1.7^f %.
For `CC(=O)N(O)CCCCCNC(=O)CCC(=O)N(O)CCCCCNC(=O)CCC(=O)N(O)CCCCCN` [DFO, Desferrioxamine B, reference compound], in the assay with iron [5] (150 μmol/kg po, n = 3), the “% bile (of iron excreted), rodents” value is reported as 87%; the “% urine (of iron excreted), rodents” value is listed as 13%; the “efficiency in rodents (%)” value is given as 1.1 ± 0.6^c %. Besides, in the assay on iron [5] (150 μmol/kg sc, n = 6), the “% bile (of iron excreted), rodents” value is reported as 75%; the “% urine (of iron excreted), rodents” value is recorded as 25%; the “efficiency in rodents (%)” value was 2.8 ± 0.7%. Moreover, in the assay with iron [4] (setting [8]), the “% stool (of iron excreted), monkeys” value is reported as 55%; the “% urine (of iron excreted), monkeys” value is reported as 45%; the “efficiency in monkeys (%)” value is 0.1±0.4% and 0.1 ± 0.4^d %. In the assay with iron [4] (150 μmol/kg sc, n = 5), the “% stool (of iron excreted), monkeys” value is reported as 45%; the “% urine (of iron excreted), monkeys” value is listed as 55%; the “efficiency in monkeys (%)” value is recorded as 5.5±0.9%.
